Results on 37 molecules are retold here after US20110152332A1, “Pesticidal Heterocyclic Compounds” (Bayer CropScience AG, priority 2009, published 2011).

What all share (format): in vivo
For assay [1], the system named is Two-spotted spider mite (Tetranychus urticae). Put plainly: Test against two-spotted spider mite (Tetranychus urticae), spray. The note with it: active compound concentration 100 ppm; adult mites on kidney bean, sprayed; after 7 days. How it is done:
(§1) Unless described otherwise, the test solutions were prepared as follows:
(§2) The active compound, 1 part by weight of the active compound was admixed with the solvent in the above described amount which contains the emulsifying agent in the above described amount. The mixture was then diluted with water to specific concentration.
(§3) In order to prepare the test solution containing the active compound, 1 part by weight of the active compound was admixed with 3 parts by weight of the solvent dimethyl formamide which contains 1 part by weight of the emulsifying agent polyoxyethylene alkylphenyl ether. This mixture is then diluted with water to the specific concentration.
(§4) Solvent: dimethyl formamide, 3 parts by weight; emulsifying agent: polyoxyethylene alkylphenyl ether, 1 part by weight
50 to 100 adult mites of Tetranychus urticae were inoculated to leaves of kidney bean at two-leaf stage planted in a pot of 6 cm in diameter. After one day, test solution at the appropriate concentration was sprayed thereon in a sufficient amount using a spray gun. After the spraying, the plant pot was placed inside a greenhouse, and after 7 days, the acaricidal activity was calculated. An acaricidal activity of 100% means that all mites were killed, whereas an acaricidal activity of 0% means that no mite was killed.

The subject of assay [2] is Tobacco cutworm (Spodoptera litura) larvae. Description: Test against tobacco cutworm (Spodoptera litura) larvae, leaf dip. The note with it: active compound concentration 100 ppm; third instar larvae on dipped sweet potato leaves; after 7 days. How it is done: as §1, §2, §3, §4
Leaves of sweet potato were immersed in the test solution at the appropriate concentration, and the leaves were dried in air. The leaves were then placed in a petri dish having a diameter of 9 cm, and ten Spodoptera litura at third instar larvae were released therein. The petri dishes were placed in a temperature-controlled chamber at 25° C. After 2 days and 4 days more sweet potato leaves were added. After 7 days, the number of dead larvae was counted to calculate the insecticidal activity. An insecticidal activity of 100% means that all larvae were killed, whereas an insecticidal activity of 0% means that no larva was killed. In the current test, the results of two petri dishes for each treatment were averaged.

Assay [3] concerns Cucurbit leaf beetle (Aulacophora femoralis). Put plainly: Test against cucurbit leaf beetle (Aulacophora femoralis), leaf dip. The note with it: active compound concentration 100 ppm; second instar larvae on dipped cucumber leaves; after 7 days. The protocol: as §1, §2, §3, §4
Leaves of cucumber were immersed in the test solution at the appropriate concentration, and the leaves were dried in air. The leaves were then put in a plastic cup containing sterilized black soil and five Aulacophora femoralis at second instar larvae were released in the cup. The cups were placed in a temperature-controlled chamber at 25° C. After 7 days, the number of dead larvae was counted, and thus the insecticidal activity was calculated. An insecticidal activity of 100% means that all larvae were killed, whereas an insecticidal activity of 0% means that no larva was killed.

As for `CCC(=O)NC(C)c1ccc(N2CC(c3cc(Cl)c(Cl)c(Cl)c3)(C(F)(F)F)OC2=O)cc1` (racemic) [Compound 1-371, N-(1-{4-[2-oxo-5-(3,4,5-trichlorophenyl)-5-(trifluoromethyl)-1,3-oxazolidin-3-yl]phenyl}ethyl)propanamide], the acaricidal activity in assay [1] came out at 100%. The molecule also gave an insecticidal activity in assay [2] of 100%. For the molecule `O=C(NCc1ccc(N2CC(c3cc(Cl)cc(Cl)c3)(C(F)(F)F)OC2=O)cc1C(F)(F)F)C1CC1` (stereo not drawn) [Compound 1-5], the insecticidal activity in assay [3] and in assay [2] was 100% each time. In assay [2], `CCNC(=O)NCc1ccc(N2CC(c3cc(Cl)cc(Cl)c3)(C(F)(F)F)OC2=O)cc1C(F)(F)F` (stereo not drawn) [Compound 1-13] yielded an insecticidal activity of 100%. On to `CC(C)(C)OC(=O)NCc1ccc(N2CC(c3cc(Cl)cc(Cl)c3)(C(F)(F)F)OC2=O)cc1C(F)(F)F` (stereo not drawn) [Compound 1-14], for which the insecticidal activity in assay [3] and in assay [2] was 100% each time. Molecule `NCc1ccc(N2CC(c3cc(Cl)c(Cl)c(Cl)c3)(C(F)(F)F)OC2=O)cc1C(F)(F)F` (stereo not drawn) [Compound 1-15] registered an insecticidal activity in assay [2] of 100%. For the molecule `CCCC(=O)NCc1ccc(N2CC(c3cc(Cl)c(Cl)c(Cl)c3)(C(F)(F)F)OC2=O)cc1C(F)(F)F` (stereo not drawn) [Compound 1-18], the insecticidal activity in assay [2] was determined as 100%. For `O=C(NCc1ccc(N2CC(c3cc(Cl)c(Cl)c(Cl)c3)(C(F)(F)F)OC2=O)cc1C(F)(F)F)C1CC1` (stereo not drawn) [Compound 1-19], the insecticidal activity in assay [3] and in assay [2] was 100% in each case. In turn, `O=C(CC1CC1)NCc1ccc(N2CC(c3cc(Cl)c(Cl)c(Cl)c3)(C(F)(F)F)OC2=O)cc1C(F)(F)F` (stereo not drawn) [Compound 1-20] registered an insecticidal activity in assay [2] of 100%. Molecule `O=C(CC(F)(F)F)NCc1ccc(N2CC(c3cc(Cl)c(Cl)c(Cl)c3)(C(F)(F)F)OC2=O)cc1C(F)(F)F` (stereo not drawn) [Compound 1-21] displayed an acaricidal activity in assay [1] of 100%. In addition, the insecticidal activity in assay [3] and in assay [2] was 100% each time. On to `CSCC(=O)NCc1ccc(N2CC(c3cc(Cl)c(Cl)c(Cl)c3)(C(F)(F)F)OC2=O)cc1C(F)(F)F` (stereo not drawn) [Compound 1-22], for which the insecticidal activity in assay [3] and in assay [2] was 100% in each case.

`COCCC(=O)NCc1ccc(N2CC(c3cc(Cl)c(Cl)c(Cl)c3)(C(F)(F)F)OC2=O)cc1C(F)(F)F` (stereo not drawn) [Compound 1-25] gave an acaricidal activity in assay [1] of 100%. The molecule further gave an insecticidal activity in assay [2] of 100%.

Take `CC(C)(C)OC(=O)NCc1ccc(N2CC(c3cc(Cl)c(Cl)c(Cl)c3)(C(F)(F)F)OC2=O)cc1C(F)(F)F` (stereo not drawn) [Compound 1-28]: the insecticidal activity in assay [3] and in assay [2] was 100% throughout. Molecule `CCC(=O)NCc1ccc(N2CC(c3cc(Cl)c(Cl)c(Cl)c3)(C(F)(F)F)OC2=O)cc1Cl` (stereo not drawn) [Compound 1-31] came in with an acaricidal activity in assay [1] of 100%. Further, the insecticidal activity in assay [3] and in assay [2] was 100% throughout. As for `CC(=O)NCc1ccc(N2CC(c3cccc(C(F)(F)F)c3)(C(F)(F)F)OC2=O)cc1C(F)(F)F` (stereo not drawn) [Compound 1-72], the insecticidal activity in assay [3] and in assay [2] was 100% in each case.

On to `CCCC(=O)NCc1ccc(N2CC(c3cccc(C(F)(F)F)c3)(C(F)(F)F)OC2=O)cc1C(F)(F)F` (stereo not drawn) [Compound 1-74], for which the insecticidal activity in assay [3] and in assay [2] was 100% each time. Regarding `O=C(NCc1ccc(N2CC(c3cccc(C(F)(F)F)c3)(C(F)(F)F)OC2=O)cc1C(F)(F)F)C1CC1` (stereo not drawn) [Compound 1-75], the acaricidal activity in assay [1] turned out to be 100%. Moreover, the insecticidal activity in assay [3] and in assay [2] was 100% each time. Molecule `O=C(CC1CC1)NCc1ccc(N2CC(c3cccc(C(F)(F)F)c3)(C(F)(F)F)OC2=O)cc1C(F)(F)F` (stereo not drawn) [Compound 1-76] yielded an acaricidal activity in assay [1] of 100%. Further, the insecticidal activity in assay [3] and in assay [2] was 100% in each case. `O=C(CC(F)(F)F)NCc1ccc(N2CC(c3cccc(C(F)(F)F)c3)(C(F)(F)F)OC2=O)cc1C(F)(F)F` (stereo not drawn) [Compound 1-77]: the insecticidal activity in assay [3] and in assay [2] was 100% each time. `CC(=O)NCc1ccc(N2CC(c3cc(C(F)(F)F)cc(C(F)(F)F)c3)(C(F)(F)F)OC2=O)cc1C(F)(F)F` (stereo not drawn) [Compound 1-128]: the insecticidal activity in assay [3] and in assay [2] was 100% each time. Regarding `CCC(=O)NCc1ccc(N2CC(c3cc(C(F)(F)F)cc(C(F)(F)F)c3)(C(F)(F)F)OC2=O)cc1C(F)(F)F` (stereo not drawn) [Compound 1-129], in assay [1], the acaricidal activity was found to be 100%. Besides, the insecticidal activity in assay [3] and in assay [2] was 100% in each case.

Turning to `O=C(NCc1ccc(N2CC(c3cc(C(F)(F)F)cc(C(F)(F)F)c3)(C(F)(F)F)OC2=O)cc1C(F)(F)F)C1CC1` (stereo not drawn) [Compound 1-131], the insecticidal activity in assay [3] and in assay [2] was 100% in each case. On to `O=C(CC(F)(F)F)NCc1ccc(N2CC(c3cc(C(F)(F)F)cc(C(F)(F)F)c3)(C(F)(F)F)OC2=O)cc1C(F)(F)F` (stereo not drawn) [Compound 1-133], for which the acaricidal activity in assay [1] came out at 100%. Moreover, the insecticidal activity in assay [3] and in assay [2] was 100% throughout.

As for `CSCC(=O)NCc1ccc(N2CC(c3cc(C(F)(F)F)cc(C(F)(F)F)c3)(C(F)(F)F)OC2=O)cc1C(F)(F)F` (stereo not drawn) [Compound 1-134], in assay [1], the acaricidal activity amounted to 100%. Moreover, the insecticidal activity in assay [3] and in assay [2] was 100% in each case.

`COCCC(=O)NCc1ccc(N2CC(c3cc(C(F)(F)F)cc(C(F)(F)F)c3)(C(F)(F)F)OC2=O)cc1C(F)(F)F` (stereo not drawn) [Compound 1-137] yielded an acaricidal activity in assay [1] of 100%. This molecule returned an insecticidal activity in assay [3] of 100%. Consider `CC(=O)NCc1ccc(N2CC(c3cc(C(F)(F)F)cc(C(F)(F)F)c3)(C(F)(F)F)OC2=O)cc1Cl` (stereo not drawn) [Compound 1-142], for which the insecticidal activity in assay [3] and in assay [2] was 100% throughout.

For the molecule `CCC(=O)NCc1ccc(N2CC(c3cc(C(F)(F)F)cc(C(F)(F)F)c3)(C(F)(F)F)OC2=O)cc1Cl` (stereo not drawn) [Compound 1-143], the insecticidal activity in assay [3] and in assay [2] was 100% each time. In assay [3], `CSCC(=O)NCc1ccc(N2CC(c3cc(C(F)(F)F)cc(C(F)(F)F)c3)(C(F)(F)F)OC2=O)cc1Cl` (stereo not drawn) [Compound 1-148] gave an insecticidal activity of 100%. Take `C[S+]([O-])CC(=O)NCc1ccc(N2CC(c3cc(C(F)(F)F)cc(C(F)(F)F)c3)(C(F)(F)F)OC2=O)cc1Cl` (stereo not drawn) [Compound 1-149]: the insecticidal activity in assay [3] and in assay [2] was 100% in each case. `COCCC(=O)NCc1ccc(N2CC(c3cc(C(F)(F)F)cc(C(F)(F)F)c3)(C(F)(F)F)OC2=O)cc1Cl` (stereo not drawn) [Compound 1-151] yielded an insecticidal activity in assay [2] of 100%. In the case of `CC(=O)NCc1ccc(N2CC(c3cc(C(F)(F)F)cc(C(F)(F)F)c3)(C(F)(F)F)OC2=O)cc1C` (stereo not drawn) [Compound 1-156], the insecticidal activity in assay [2] came to 100%. With `CCC(=O)NCc1ccc(N2CC(c3cc(C(F)(F)F)cc(C(F)(F)F)c3)(C(F)(F)F)OC2=O)cc1C` (stereo not drawn) [Compound 1-157], the insecticidal activity in assay [3] and in assay [2] was 100% each time.

As to `COCCC(=O)NCc1ccc(N2CC(c3cc(C(F)(F)F)cc(C(F)(F)F)c3)(C(F)(F)F)OC2=O)cc1C` (stereo not drawn) [Compound 1-165], the insecticidal activity in assay [3] and in assay [2] was 100% in each case.

Molecule `C[C@H](NC(=O)C1CC1)c1ccc(N2CC(c3cc(Cl)cc(Cl)c3)(C(F)(F)F)OC2=O)cc1` (stereo partly drawn) [Compound 1-345-a] gave an acaricidal activity in assay [1] of 100%. In assay [2], this molecule registered an insecticidal activity of 100%. As for `CC(=O)NC(C)c1ccc(N2CC(c3cc(Cl)c(Cl)c(Cl)c3)(C(F)(F)F)OC2=O)cc1` (stereo not drawn) [Compound 1-370], the insecticidal activity in assay [3] and in assay [2] was 100% throughout. With `CCC(=O)N[C@H](C)c1ccc(N2CC(c3cc(Cl)c(Cl)c(Cl)c3)(C(F)(F)F)OC2=O)cc1` (stereo partly drawn) [Compound 1-371-b], the insecticidal activity in assay [2] was found to be 100%. As to `CC(NC(=O)C1CC1)c1ccc(N2CC(c3cc(Cl)c(Cl)c(Cl)c3)(C(F)(F)F)OC2=O)cc1` (stereo not drawn) [Compound 1-373], the acaricidal activity in assay [1] came to 100%. Also, the insecticidal activity in assay [2] was 100%. Molecule `CCC(=O)NC1CCc2cc(N3CC(c4cc(Cl)cc(Cl)c4)(C(F)(F)F)OC3=O)ccc21` (stereo not drawn) [Compound 4-3] gave an insecticidal activity in assay [2] of 100%.
